From patent publication US6469132B1, “Diblock copolymer and use thereof in a micellar drug delivery system” (McGill University, priority 1999, dated 2002)
Several values for one entry are separate records, joined by “and”; a condition that tells them apart may be missing. Equal entries are not always repeated.

Experiments:
[1] = polystyrene-b-polyacrylic acid micelles; Zhao et al. 1997; cited from earlier work
[2] = Partition coefficient for pyrene between PCL-b-PEO micelles and water (fluorescence I3/I1 method); type: physicochemical; conditions: extrapolation to 100% water content; PCL-b-PEO (20-b-44) micelles
Description: The degree of non-covalent incorporation of physical entrapment of a hydrophobic drug into a micelle is determined by the partition coefficient of the drug between the micellar core and the surrounding aqueous medium. The affinity of the PCL-b-PEO micelles for lipophilic compounds was assayed by the determination of the Kv for the hydrophobic model compound, pyrene, between the PCL-b-PEO micelles and water. This method has been previously used to determine the Kv of pyrene between polystyrene-b-polyacrylic acid micelles and water. This fluorescence method is based on pyrene's sensitivity to the hydrophobicity of its microenvironment. […]
The fluorescence method used to determine the partition coefficient for pyrene between a mixed water/DMF solvent mixture (60-90% water content) and block copolymer micelles (concentration PCL20-b-PEO44 ranges from 1×10^−6 to 1×10^−2 g/g), at 25° C., has been described in detail elsewhere (Zhao, J. et al. (1997) Macromolecules, 30:7143-7150). […] Briefly, the intensity ratio of vibrational band three to vibrational band one (I3/I1) in the fluorescence emission spectrum of pyrene reflects the polarity of the surrounding environment of the probe molecules. […]
Steady-state fluorescent spectra were measured using a SPEX Fluorolog 2 spectrometer in the right-angle geometry (90° collecting optics). […] For fluorescence emission spectra, λεξ was 339 nm. […]

PC 12 cells = test: Cell uptake of pyrene incorporated micelles; type: cell-based, rat; conditions: 390 nm, zero time = 1, PCL14-b-PEO44 micelles
Description: The in vitro biocompatibility of the PCL-b-PEO micelles (14-b-44, 20-b-44) was tested by incubating the micelles with a wide range of cell lines for both 24-hour and 48-hour periods. The Trypan blue and Alamar blue survival assays were then used to quantify the survival rates in the presence of the PCL-b-PEO micelles. The capability of the PCL-b-PEO micelle system to deliver a hydrophobic compound was first tested in vitro using pyrene as a model compound. The pyrene incorporated PCL-b-PEO micelles were incubated with PC 12 cells over a 24-hour period. At 0, 4, 8 and 24 hours, samples of the supernatant were studied by fluorescence in order to determine the quantity of pyrene remaining in the supernatant at each time point. Likewise, at each time point, cells were isolated and their fluorescence was examined under the fluorescence microscope in order to determine if the decrease in the fluorescence within the supernatant was accompanied by an increase in fluorescence within the cells.
Pyrene incorporated micelles were prepared such that a total of 2×10^−7 moles/L of pyrene had been added to the 1% (w/w) micelle (PCL14-b-PEO44) solution, An aliquot of the micelle solution was incubated with PC 12 cells cultured in DMEM at 37° C., 5% CO2. At time 0, and 4, 8 and 24 hours, the fluorescence intensity (Perkin Elmer LS 50) of the supernatant was measured at 390 nm to determine the amount of pyrene remaining in the supernatant. Controls consisting of medium or medium and micelles alone were also measured. Following the removal of the aliquot of supernatant at each time point, the remaining supernatant was removed and the cells were washed three times with 100 uL of phosphate buffer saline. The cells were then gently scraped and fixed with aquamount on a slide and analyzed using a fluorescence microscope (Olympus BH-2).

[3] = tested on: PC 12 rat pheochromocytoma cells; test: Cell differentiation assay: neurite-like outgrowth; type: cell-based
Description: In each case, the degree of neurite-like outgrowth was taken to be 100% in the control wells of untreated PC 12 cells. The degree of differentiation in cell wells in the presence of NGF and/or drug is expressed as a percentage relative to 100% for the control.
PC 12 cells were plated in 24 well plates at 37° C. in 5% CO2 and incubated in DMEM supplemented with 5% fetal bovine serum and the treatments described below. Neurite-like outgrowth in PC 12 cells was detected after a 48 hour period using a Nikon light microscope. For each data point 5 fields of 250-300 cells/well were analyzed. For the quantitation of neurite-like outgrowth the PC 12 cells were considered to have outgrowth if their processes were longer than the length of the diameter of the cell.
A range of concentrations of either NGF (0.1 to 50 ng/mL), FK506 (1 to 500 nM) or L,685-818 (1 to 500 nM) alone or combinations of 0.5 or 5 ng/mL of NGF with either FK506 (5 to 500 nM) or L-685,818 (50 nM to 10 μM), were incubated with the PC 12 cells for a 48 hour incubation period. The wells with untreated cells were used as controls.
The unfiltered solution of the micelle incorporated drug was added to the cell wells at different concentrations: a 10 μL aliquot of a FK506-micelle solution was added to each 0.5 mL cell well. The 10 μL aliquot was produced by diluting the 1.1×10^−5 moles/L FK506-PCL20-b-PEO44 micelle (1% w/w) stock solution. The final concentration of FK506 in the cell well was made to range from […]. In the same manner, a 10 uL aliquot of the L-685,818 micelle solution was added to each 0.5 mL cell well, such that final concentration in the well was made to range from 10 nM to 1 μM. In each case, 5 ng/mL NGF was also added to each cell well. Several controls were also used where the cells were treated with 5 ng/mL of NGF alone, 1% (w/w) PCL20-b-PEO44 micelles alone, 1% (w/w) PCL20-b-PEO44 micelles containing 1 nM FK 506 without NGF or 1% (w/w) PCL20-b-PEO44 micelles containing 10 nM L-685,818.

[4] = drug alone 1 to 500 nM, 48 h, untreated control = 100%

c1cc2ccc3cccc4ccc(c1)c2c34 [pyrene]
partition coefficient for pyrene between PS-b-PAA micelles and water [1]: ~10^5 | partition coefficient (Kv) for pyrene between PCL-b-PEO micelles and water [2]: ~10^2 | relative fluorescence intensity of pyrene in supernatant (PC 12 cells; after 4 hours): 0.70 (±0.05) | relative fluorescence intensity of pyrene in supernatant (PC 12 cells; after 8 hours): 0.60 (±0.05) | relative fluorescence intensity of pyrene in supernatant (PC 12 cells; after 24 hours): 0.55 (±0.05)

C=CC[C@@H]1/C=C(\C)C[C@H](C)C[C@H](OC)[C@H]2O[C@@](O)(C(=O)C(=O)N3CCCC[C@H]3C(=O)O[C@H](/C(C)=C/[C@@H]3CC[C@@H](O)[C@H](OC)C3)[C@H](C)[C@@H](O)CC1=O)[C@H](C)C[C@@H]2OC [FK506]
degree of neurite-like outgrowth [3, 4]: ~100% | degree of neurite-like outgrowth ([3]; free FK506 1-100 nM with 5 ng/mL NGF, 48 h): 220-380% | dose adequate to potentiate neurite-like outgrowth ([3]; in vitro, PC12 cell cultures): 1 nM

CC[C@@H]1/C=C(\C)[C@@H](O)[C@H](C)C[C@H](OC)[C@H]2O[C@@](O)(C(=O)C(=O)N3CCCC[C@H]3C(=O)O[C@H](/C(C)=C/[C@@H]3CC[C@@H](O)[C@H](OC)C3)[C@H](C)[C@@H](O)CC1=O)[C@H](C)C[C@@H]2OC [L-685,818]
degree of neurite-like outgrowth [3, 4]: ~100% | effect of drug concentration on degree of differentiation ([3]; drug alone, no NGF, 48 h): no effect on the degree of differentiation | potentiation of the effect of NGF on neurite-like outgrowth ([3]; with 5 ng/mL NGF, PC 12 cell cultures): potentiate the effect of NGF on the outgrowth of PC 12 cells

NGF: nerve growth factor
degree of neurite-like outgrowth ([3]; 5 ng/mL NGF alone, 48 h, untreated control = 100%): 160±5% and 180±6% | degree of neurite-like outgrowth ([3]; NGF alone 0.1 to 50 ng/mL, 48 h, untreated control = 100%): 110-260%
